Each compound was assayed against T1, SMBS on rat lung membranes (Rattus norvegicus, UniProt A0A8I6A822) (assay: Receptor binding of the compound in rat lung membranes ([125I]-iodo-cyanopindolol ligand binding assay; Experiments 1 and 4)). Conditions: Table 39; compound concentration 30 μM; [125I]-iodo-cyanopindolol, rat lung membranes; Experiment 1; read-out: Binding Activity (30 μM).
T1 construct: from tissue; host or cells: rat lung membranes (SD male rats)
Description: Evaluation Test on Receptor Binding of the Compound in Rat Lung Membranes:
This experiment was carried out according to the method disclosed in Sugasawa et al., (Sugasawa, T. et al., J. Biol. Chem., 272, 21244-21252(1997)).
Preparation of Rat Lung Membranes
The air tube and blood vessels were removed from the lung excised from SD male rats (7-weeks old when used, purchased from Charles River Japan, Inc.), and the lung was chopped, and washed with ice-cold tris-saline buffer (10 mM Tris-HCl, 154 mM sodium chloride, pH 7.4). The lung was homogenized by PHYSCOTRON (maximum speed: 1 minute) in a buffer for homogenization (tris-saline buffer containing 1 mM ethylenediaminetetraacetate (EDTA), 1 mM 4-(2-aminoethyl)-benzenesulfonyl fluoride (AEBSF), 5 μg/ml aprotinin, 5 μg/ml leupeptin) under ice-cooling. The mixture was centrifuged at a low speed (1500×g, 20 minutes, 4° C.), and the supernatant was super-centrifuged (100000×g, 20 minutes, 4° C.). The pellets thus obtained were suspended in tris-saline buffer, and kept at −80° C. The concentration of protein was measured by a Protein Assay Kit manufactured by Bio-Rad using bovine serum albumin (BSA) as standard.
To each well of a protein-non-adsorbent round-bottom 96-well assay plate (purchased from IWAKI GLASS CO., LTD.) was added tris-saline buffer (200 μl) containing 1 nM [^125I]-iodo-cyanopindolol (purchased from Amarsham), 10 μM serotonin, 20 μM dl-propranol, 10 μM phentoramine, 1.1 mM ascorbic acid and 100 μg lung membranes, and the mixture was mixed well by pipetting, and the plate was incubated at 37° C. for 30 minutes. Test compounds were dissolved in 100% dimethylsulfoxide, and added to the plate in an amount of 2 μl (final concentration of DMSO: 1%). In order to obtain non-specific binding, L-threo-3-(3,4-dihydroxyphenyl)-N-[3-(4-fluorophenyl)propyl]-serinepyrrolidinamide was added at a final concentration of 100 μM instead of test compound. During this period, 0.3% polyethyleneimine (PEI)/tris-saline buffer (100 μl) was added to a multiscreen plate (96-well B-glassfiber, milipore Cat. No. MAFB NOB10) and the plate was incubated for more than 30 minutes. The plate was washed by vacuum filtration (by adding ice-cold tris-saline buffer (200 μl) and then vacuum filtration), and the reaction solution on the 96-well assay plate was washed by vacuum filtration onto the multiscreen plate for four times. The B-glassfiber paper filter at the bottom of the multiscreen plate was punched out, and the γ-ray amount of [^125I]-iodo-cyanopindolol being trapped onto the paper filter was measured as binding amount. The binding amount in the presence of DMSO (final concentration: 1%) was regarded as total binding, and the binding in the presence of L-threo-3-(3,4-dihydroxyphenyl) -N-[3-(4-fluorophenyl)-propyl]serinepyrrolidinamide was regarded as non-specific binding. The value which is calculated by subtracting non-specific binding from total binding is specific binding. The binding activity of the compound can be calculated by the following equation, and expressed in a ratio of inhibiting the specific binding of [^125I]-iodo-cyanopindorol to SMBS on rat lung membranes.
In the same manner to in Experiment 1, the receptor binding assay was carried out on the present compounds by using the rat lung membranes.

T1 sequence (A0A8I6A822 27-587): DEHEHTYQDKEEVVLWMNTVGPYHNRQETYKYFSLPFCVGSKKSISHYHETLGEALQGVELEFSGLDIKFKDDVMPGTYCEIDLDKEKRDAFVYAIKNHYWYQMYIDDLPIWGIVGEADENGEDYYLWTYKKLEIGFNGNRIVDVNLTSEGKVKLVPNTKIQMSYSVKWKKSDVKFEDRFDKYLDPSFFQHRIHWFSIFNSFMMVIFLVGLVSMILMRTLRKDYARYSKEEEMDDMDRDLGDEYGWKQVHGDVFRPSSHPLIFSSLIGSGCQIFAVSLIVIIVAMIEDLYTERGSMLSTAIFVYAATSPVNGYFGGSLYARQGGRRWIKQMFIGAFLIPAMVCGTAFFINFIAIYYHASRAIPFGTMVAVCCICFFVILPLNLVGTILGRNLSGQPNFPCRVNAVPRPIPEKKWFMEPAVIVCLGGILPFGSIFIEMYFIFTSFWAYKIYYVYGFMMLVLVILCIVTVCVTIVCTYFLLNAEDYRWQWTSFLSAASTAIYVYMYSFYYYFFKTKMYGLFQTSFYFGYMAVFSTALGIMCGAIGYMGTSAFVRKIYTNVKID

Row | inhibition at 30 µM [%] | SMILES
1 | 58.6 | O=C(CO)NCCCn1c(-c2ccc(Br)cc2)csc1=Nc1ccccc1 [Example 169, N-{3-[4-(4-Bromophenyl)-2-(phenylimino)-thiazol-3(2H)-yl]propyl}-2-hydroxyacetamide]
2 | 76.5 | CNCCCn1c(-c2ccc(OC)cc2)csc1=Nc1ccccc1 [Example 152, N-{4-(4-Methoxyphenyl)-3-[3-(methylamino)propyl]thiazol-2(3H)-ylidene}aniline]

Same assay, conditions: Table 42; concentration tested 30 μM; rat lung membranes; Experiment 4; read-out: Binding Activity (30 μM)

Row | inhibition at 30 µM [%] | SMILES
3 | 79 | CCCCNC(=O)NCCCn1c(-c2ccc(N3CCOCC3)cc2)csc1=Nc1ccc(F)cc1 [Example 221, N-butyl-N′-{3-[2-[(4-fluorophenyl)imino]-4-[4-(morpholino)phenyl]-thiazol-3(2H)-yl]propyl}urea]
4 | 18 | CCNC(=O)NCCCCCn1c(-c2ccc(N3CCOCC3)cc2)cs/c1=N\c1ccc(F)cc1 [Example 295]
5 | 50 | CCOC(=O)CC(=O)NCCCn1c(-c2ccc(N3CCOCC3)cc2)cs/c1=N\c1ccc(F)cc1 [Example 239]
6 | 109 | CCOC(=O)CNCCCn1c(-c2ccc(F)cc2)csc1=Nc1ccc(Cl)cc1OC [Example 215, Ethyl N-{3-[2-[(4-chloro-2-methoxyphenyl)imino]-4-(4-fluorophenyl)-thiazol-3(2H)-yl]propyl}glycinate]
7 | 99 | CCNC(=O)NCCn1c(-c2ccc(N3CCOCC3)cc2)cs/c1=N\c1ccc(F)cc1 [Example 280]
8 | 112 | CCOC(=O)CCNCCCn1c(-c2ccc(F)cc2)csc1=Nc1ccc(Cl)cc1OC [Example 216, Ethyl N-{3-[2-[(4-chloro-2-methoxyphenylimino)]-4-(4-fluoro-phenyl)-thiazol-3 (2H)-yl]propyl}-β-alaninate]
9 | 35 | O=C(NCCCn1c(-c2ccc(N3CCOCC3)cc2)cs/c1=N\c1ccc(F)cc1)NC1CCCCC1 [Example 285]
10 | 75 | CCNC(=O)NCCCn1c(-c2ccc(N3CCOCC3)cc2)cs/c1=N\c1ncccn1 [Example 297]
11 | 68 | COc1ccc(NC(=O)NCCCn2c(-c3ccc(N4CCOCC4)cc3)cs/c2=N\c2ccc(F)cc2)cc1 [Example 291]
12 | 101 | CN(C)C(=O)NCCCn1c(-c2ccc(N3CCOCC3)cc2)csc1=Nc1ccc(F)cc1 [Example 220, N′-{3-[2-[(4-Fluorophenyl)imino]-4-[4-(morpholino)phenyl]thiazol-3(2H)-yl]propyl}-N,N-dimethylurea]
13 | 61 | CCS(=O)(=O)NCCCn1c(-c2ccc(N3CCOCC3)cc2)cs/c1=N\c1ccc(F)cc1 [Example 251]

Same assay, conditions: Table 43; concentration tested 30 μM; rat lung membranes; Experiment 4; read-out: Binding Activity (30 μM)

Row | SMILES | inhibition at 30 µM [%]
14 | COCC(=O)NCCCn1c(-c2ccc(OC(F)(F)F)cc2)cs/c1=N\Cc1ccc(OC)cc1OC [Example 383, N-{3-[2-[(2,4-Dimethoxybenzyl)imino]-4-[4-(trifluoromethoxy)phenyl]-1,3-thiazol-3(2H)-yl]propyl}-2-methoxyacetamide] | 84
15 | CCNC(=O)NCCCn1c(COCc2ccccc2)cs/c1=N\c1ccc(OC(F)(F)F)cc1 [Example 305] | 13
16 | COCCNCCCn1c(-c2ccc(F)cc2)cs/c1=N\c1ccc(Cl)cc1OC [Example 315] | 115
17 | COc1ccc(C/N=c2\scc(-c3ccc(OC(F)(F)F)cc3)n2CCCN)c(OC)c1 [Example 362, 3-[2-[(2,4-Dimethoxybenzyl)imino]-4-[4-(trifluoromethoxy)phenyl]-1,3-thiazol-3(2H)-yl]-1-propanamine] | 117
18 | CCNC(=O)NCCCn1c(COCc2ccccc2)cs/c1=N\c1ccc(OC)cn1 [Example 307] | 48

Results, then the compound that gave them:

Row | inhibition at 30 µM [%] | SMILES
19 | 107 | O=C(CN1CCCC1)NCCCn1c(-c2ccc(OC(F)(F)F)cc2)cs/c1=N\Cc1ccc(Cl)cc1 [Example 384, N-{3-[2-[(4-Chlorobenzyl)imino]-4-[4-(trifluoromethoxy)phenyl]-1,3-thiazol-3(2H)-yl]propyl}-2-(1-pyrrolidinyl)acetamide]
20 | 82 | O=C(CNc1ccccc1)NCCCn1c(-c2ccc(N3CCOCC3)cc2)cs/c1=N\c1ccc(F)cc1 [Example 359]
21 | 100 | CN(C)C(=O)NCCCn1c(-c2ccc3c(c2)OCO3)cs/c1=N\c1ccc(OC(F)(F)F)cc1 [Example 309]
22 | 101 | O=C(CNCCCn1c(-c2ccc(N3CCOCC3)cc2)cs/c1=N\c1ccc(F)cc1)NCCO [Example 344]
23 | 76 | O=C(O)CNCCCn1c(-c2ccc(N3CCOCC3)cc2)csc1=Nc1ccc(F)cc1 [Example 329, N-{3-[2-[(4-Fluorophenyl)imino]-4-[4-(morpholino)phenyl]thiazol-3(2H)-yl]propyl}glycine]

Same assay, conditions: Table 44; concentration tested 30 μM; rat lung membranes; Experiment 4; read-out: Binding Activity (30 μM)

Row | SMILES | inhibition at 30 µM [%]
24 | O=C(O)CNCCCn1c(-c2ccc(OC(F)(F)F)cc2)cs/c1=N\Cc1ccc(Cl)cc1 [Example 427, N-{3-[2-[(4-Chlorobenzyl)imino]-4-[4-(trifluoromethoxy)phenyl]-1,3-thiazol-3(2H)-yl]propyl}glycine] | 100
25 | COc1ccc(C(=O)N=c2scc(CNS(=O)(=O)c3ccc(C)cc3)n2CCCNC(C)=O)c(OC)c1 [Example 473, N-[3-[3-(Acetylamino)propyl]-4-({[(4-methylphenyl)sulfonyl]amino}-methyl)thiazol-2(3H)-ylidene]-2,4-dimethoxybenzamide] | 33
26 | COc1ccc(C(=O)/N=c2\scc(C(=O)N3CCc4ccccc4C3)n2CCCN)c(OC)c1 [Example 432] | 42
27 | CCS(=O)(=O)NCCCn1c(-c2ccc(OC(F)(F)F)cc2)cs/c1=N\Cc1ccc(Cl)cc1 [Example 430, N′-{3-[2-[(4-Chlorobenzyl)imino]-4-[4-(trifluoromethoxy)phenyl]-1,3-thiazol-3(2H)-yl]propyl}ethanesulfonamide] | 89
28 | COc1ccc(C/N=c2\scc(-c3ccc(OC(F)(F)F)cc3)n2CCCNCC(F)(F)F)c(OC)c1 [Example 413] | 96
29 | O=C(O)CCNCCCn1c(-c2ccc(OC(F)(F)F)cc2)cs/c1=N\Cc1ccc(Cl)cc1 [Example 428] | 103
30 | CCOC(=O)NCCCn1c(-c2ccc(OC(F)(F)F)cc2)cs/c1=N\Cc1ccc(Cl)cc1 [Example 368] | 100
31 | COc1ccc(C(=O)/N=c2\scc(C(=O)Nc3ccc(Cl)cc3)n2CCCN)c(OC)c1 [Example 431, 3-(3-Aminopropyl)-N-(4-chlorophenyl)-2-[(2,4-dimethoxybenzoyl)imino]-2,3-dihydro-1,3-thiazol-4-carboxamide] | 95

Other lines, results leading:

Row | inhibition at 30 µM [%] | SMILES
32 | 113 | O=C(CNCCCn1c(-c2ccc(OC(F)(F)F)cc2)cs/c1=N\Cc1ccc(Cl)cc1)NCCO [Example 423]
33 | 80 | O=C(NCCCn1c(-c2ccc(OC(F)(F)F)cc2)cs/c1=N\Cc1ccc(Cl)cc1)Nc1ccc(F)cc1 [Example 393]
34 | 121 | O=C(NCCCn1c(-c2ccc(OC(F)(F)F)cc2)cs/c1=N\Cc1ccc(Cl)cc1)NCCN1CCCC1 [Example 408]

Same assay, conditions: ratio of inhibiting the specific binding of [125I]-iodo-cyanopindolol; test concentration 30 μM; rat lung membranes; read-out: Binding Activity (30 μM)

Row | inhibition at 30 µM [%] | SMILES
35 | 85 | COc1ccc(C(=O)/N=c2\scc(-c3ccc(OC(F)(F)F)cc3)n2CCCNC(=O)CN(C)C)c(OC)c1 [Example 482]
36 | 108 | COc1ccc(C(=O)/N=c2\scc(-c3ccc(OC(F)(F)F)cc3)n2CCCNC(=N)N2CCCCC2)c(OC)c1 [Example 535]
37 | 73 | COc1ccc(C(=O)/N=c2\scc(-c3ccc(OC(F)(F)F)cc3)n2CCCNCC(=O)NCC(=O)O)c(OC)c1 [Example 523]
38 | 65 | CCNC(=S)NCCCn1c(-c2ccc(OC(F)(F)F)cc2)cs/c1=N\C(=O)c1ccc(OC)cc1OC [Example 494]
39 | 97 | CCNC(=O)NCCCn1c(-c2ccc(OC(F)(F)F)cc2)cs/c1=N\C(=O)c1ccc(OC)cc1OC [Example 484]
